We go through one molecule from article PMC5460289, “Identification of New Shikonin Derivatives as Antitumor Agents Targeting STAT3 SH2 Domain” (Scientific Reports, 2017).

What all share (format): cell-based, human
The test system of one assay is STAT5. Nature of the assay: Western blot of STAT5 phosphorylation and expression. The note with it: MDA-MB-231. How it is done:
(§1) Figure 6 (A) PMM-172 suppressed constitutive pSTAT3 (Tyr705) in a dose-dependent manner. (B) PMM-172 suppressed constitutive pSTAT3 (Tyr705) in a time-dependent manner. (C) MDA-MB-231 cells were treated with IL-6 (20 ng/mL) or vehicle for 30 min, with or without pretreatment with PMM-172 (2 μM) for 24 h. PMM-172 inhibited IL-6 induced phosphorylation of STAT3. (D) Stattic suppressed constitutive pSTAT3 (Tyr705) in a dose-dependent manner. (E) Stattic suppressed constitutive pSTAT3 (Tyr705) in a time-dependent manner. (F) Tyrosine phosphorylation of two STAT family proteins STAT1 and STAT5 were detected with specific antibodies. […] Data were shown as mean ± SD of three independent experiments. *P < 0.05, **P < 0.01. Cropped blots/gels were used in the figure and the gels had been run under the same experimental conditions; the full-length blots/gels are presented in Supplementary Figure S2.
Subsequently, we evaluated the phosphorylation level of other STAT family proteins including STAT1 and STAT5.
(§2) Cells were rinsed twice with cold PBS and then lysed with RIPA buffer containing a protease inhibitor mixture at 1:100 dilution on ice for 30 min. Insoluble components of cell lysates were removed by centrifugation (4 °C, 12000 rmp, 10 min), and protein concentrations were measured using a Pierce BCA protein assay kit. […]

Assay [1] has as its system Bcl-2, Bcl-xL, survivin and cyclin D1 in MDA-MB-231 cells. Kind of assay: Western blot of STAT3 downstream target genes expression. The settings on record: MDA-MB-231, 24 h. On the procedure:
(§3) Figure 7 MDA-MB-231 cells were treated with indicated concentrations of PMM-172 or Stattic for 24 h, the expression levels of STAT3 in cytoplasmic and nuclear extracts were examined and relative expression levels were analyzed by Image J software. β-actin and Lamin B1 served as markers of cytoplasmic and nuclear extractions, respectively. […] (C) MCF-10A cells were treated with the indicated concentrations of PMM-172 for 24 h. PMM-172 had no effect on the level of the pSTAT3 level in MCF-10A cells. […] Data were shown as mean ± SD from three independent experiments, **P < 0.01. Cropped blots/gels were used in the figure and the gels had been run under the same experimental conditions; the full-length blots/gels are presented in Supplementary Figure S3.
STAT3 target genes are vital to the dysfunctional biology processes induced by the aberrantly activated STAT3. Therefore, we investigated whether PMM-172 suppresses the expression of STAT3-regulated genes related to cell survival, proliferation and apoptosis in MDA-MB-231 cells.
as §2

In a further assay the test system is pSTAT3 in MCF-10A cells. Nature of the assay: Western blot of pSTAT3 in non-tumorigenic cells. The note with it: 24 h, increasing doses. On the procedure:
as §3
In the following work, we examined whether PMM-172 could affect the activity of STAT3 and viability in non-cancer cells. The non-tumorigenic MCF-10A epithelial cells were employed to be treated with increasing doses of PMM-172 to conduct this assay.
as §2

For assay [2], the system named is pSTAT3 (Tyr705) in MDA-MB-231 cells. Nature of the assay: Western blot of constitutive STAT3 activation.
Text: It has been well recognized that the aberrant activation of STAT3 contributes to malignant transformation and tumorgenesis, and its activity is ultimately dependent upon phosphorylation of residue Y705. […] In this study, the ability of PMM-172 and Stattic inhibiting the constitutive STAT3 activation in MDA-MB-231 cells was investigated. […] We further measured STAT3 phosphorylation at Tyr705 in a time-course experiment.
as §1
Cells were rinsed twice with cold PBS and then lysed with RIPA buffer containing a protease inhibitor mixture at 1:100 dilution on ice for 30 min. Insoluble components of cell lysates were removed by centrifugation (4 °C, 12000 rmp, 10 min), and protein concentrations were measured using a Pierce BCA protein assay kit. Proteins were separated by sodium dodecyl sulfate-polyacrylamide gel electrophoresis (SDS-PAGE) and transferred from the gel onto polyvinylidene difluoride (PVDF) membranes. The membranes were blocked with 5% skim milk in TBST buffer for 1 h at room temperature, and then incubated with corresponding primary antibodies diluted in 5% milk-TBST solution at 4 °C with gentle shaking overnight. After washing five times (5 min each), corresponding HRP-conjugated secondary antibodies were incubated for 1 h at room temperature. Immunoreactive bands were visualized using an ECL detection kit (Invitrogen, USA) following the manufacturer’s instruction.

In assay [3] the test system is PARP and caspase 3 cleavage in MDA-MB-231 cells. Kind of assay: Western blot of PARP and caspase 3 cleavage. The settings on record: MDA-MB-231, 24 h treatment. On the procedure: To determine whether PMM-172 induced apoptosis, Annexin V/PI double staining assay was conducted. MDA-MB-231 cells were treated with various concentrations of PMM-172 for 24 h, and the percentage of apoptotic cells was markedly elevated in a dose-dependent manner. Likewise, MDA-MB-231 cells were treated with corresponding doses of Stattic. […] The percentages of cell apoptosis 3.12%, 8.12%, 16.81%, 62.74% corresponded to the concentration of PMM-172 0, 2, 4 and 8 μM, respectively, including both the early and the late apoptotic cells. Clearly, PMM-172 can cause cell apoptosis more effectively than Stattic. Moreover, an extend time-course apoptosis analysis of MDA-MB-231 cells treated with 4 μM PMM-172 was carry out. […] To further assess the pro-apoptotic effect of PMM-172, we evaluated the cleavage of poly (ADP-ribose) polymerase (PARP) and caspase 3 in MDA-MB-231 cells after 24 h treatment with PMM-172. […]
Figure 4 The effect of PMM-172 on the cell apoptosis of MDA-MB-231 cells. […] Apoptosis was analyzed by flow cytometry by using Annexin V/PI double staining. […] (E) PARP and caspase 3 cleavage in MDA-MB-231 cells after treated with various concentrations of PMM-172 for 24 h were detected by using Western blot analysis. The relative expression level was analyzed by Image J software. […]

Molecules are shown by their SMILES.

Turning to `COc1cc(OC)cc(-c2nnc(SCC(=O)O[C@H](CC=C(C)C)C3=CC(=O)c4c(O)ccc(O)c4C3=O)o2)c1` [PMM-172, (R)-1-(5,8-dihydroxy-1,4-dioxo-1,4-dihydronaphthalen-2-yl)-4-methylpent-3-en-1-yl 2-((5-(3,5-dimethoxyphenyl)-1,3,4-oxadiazol-2-yl)thio)acetate], in the assay on STAT5, the “phosphorylation and expression of STAT5” value is given as “inhibited neither the phosphorylation nor expression”. Moreover, the “expression of STAT3 target genes Bcl-2, Bcl-xL, survivin and cyclin D1” value in assay [1] is “down-regulated the expression of Bcl-2, Bcl-xL, survivin and cyclin D1 in a dose-dependent manner”. For the same molecule, in the assay on pSTAT3 in MCF-10A cells, the “expression levels of total STAT3 in MCF-10A cells” value is “kept unchanged” and the “pSTAT3 level in MCF-10A cells” value is reported as “had no effect”. Further, in assay [2], the STAT3 expression entry is reported as “had no effect on STAT3 expression”; the “STAT3 phosphorylation at Tyr705, time-course” value is reported as “reduced with the longer treatment”; the “level of Y705-phosphorylated STAT3 (constitutive), dose series” value is “could reduce the level of Y705-phosphorylated STAT3 in MDA-MB-231 cells in a dose-dependent manner”. Besides, the “PARP and caspase 3 cleavage” value in assay [3] was “could induce PARP and caspase 3 cleavage”.
